Results on 28 molecules are retold here after US9643933B2, “Compounds useful as antibiotic tolerance inhibitors” (priority 2013, dated 2017).

Where a name gives a salt, the structure may show the parent alone.

In test [1] the test system is Pyocyanin. The test can be described thus: Pyocyanin Inhibition Assay. The following applies: Pseudomonas aeruginosa, PA14, 24 h, read-out: Pyocyanin Inhibition No. IC50 (μM). The test is classed as cell-based, P. aeruginosa, strain PA14. How it is done:
Test compounds are dissolved in DMSO at 10 mM and stored at −20° C. until needed. Seven test concentrations from 0.0032 micromolar to 31.6 micromolar are used for each compound.
P. aeruginosa, strain PA14, is inoculated into 5 mL of LB broth in a 15-mL sterile glass culture tube and incubated overnight at 37° C. under shaking (˜240 rpm). The overnight culture is then diluted in LB Broth to give an OD600=0.04 (T0 culture). Colony Forming Units (CFU)/mL of the overnight culture and T0 culture are determined by a series of 1:10 serial dilutions in sterile saline. 4×20 μL of each dilution is seeded on LB agar plates and incubated at 35±2° C. for 20 hours. CFU/mL is determined from the dilution that gives 2 to 50 colonies/20 μL.
For concentration response curve (CRC) experiments, internal standard, 2-((5-nitro-1H-indol-2-yl)thio)-N-(4-phenoxyphenyl)acetamide, a compound previously identified as an MvfR inhibitor (see Example 1 of US 2014-0066454 (WO 2012/116010)), and test compounds are serially diluted in DMSO to 200 times each final concentration (0.5% DMSO fmal), and 1 μL/well is dispensed in duplicate into 2 mL wells of a 96-well deep well plate. 200 μL/well of T0 culture are added to each internal standard/test compound well. Wells containing only T0 culture (200 200 μL/well) are used to determine pyocyanin control level and wells containing only LB broth (blank wells) are also included in the plate.
The plate is sealed and incubated at 37° C. under shaking (˜700 rpm) using a microtiter shaker for 24 hours. At the end of the incubation period, the plate is centrifuged at 4,000 g for 40 minutes at room temperature, 100 μL/well of the supernatant is transferred to a 96-microtiter PS flat-bottom plate, and absorbance at 690 nm is determined using SPECTROstar® Nano microplate reader. Pyocyanin concentration (M) is determined using the equation C=A690/(ε×d), where ε is the Pyocyanin extinction coefficient, at A690 nm ε is 4,310 M^−1 cm^−1 and d is the experimentally derived pathlength. The level of pyocyanin in the presence of test compound is expressed as percentage of inhibition with respect to the control. Curve fitting and IC50 determination were carried out using a four-parameter logistic model using GraphPad Prism v.5.

In test [2] the test system is PQS. The test can be described thus: PQS Inhibition Assay (24 Hour Incubation). The test is classed as cell-based, P. aeruginosa PA14 wild-type strain. The following applies: Pseudomonas aeruginosa, PA14, 24 h, read-out: PQS (24 hr) IC50 (μM). How it is done:
Test compounds are dissolved in DMSO at 10 mM and stored at −20° C. until needed. Seven test concentrations from 0.0032 micromolar to 31.6 micromolar are used for each compound. P. aeruginosa PA14 wild-type strain is inoculated into 5 mL LB broth in a 15-mL sterile glass culture tube and incubated overnight at 37° C. under shaking (˜240 rpm). The overnight culture is then diluted in LB Broth to give an OD600=0.04 (T0 culture). Colony Forming Units (CFU)/mL of the overnight culture and T0 culture are determined by a series of 1:10 serial dilutions in sterile saline. 4×20 μL of each dilution is seeded on LB agar plates and incubated at 35±2° C. for 20 hours. CFU/mL is determined from the dilution that gives 2 to 50 colonies/20 μL.
For concentration response curve (CRC) experiments, internal standard (2-((5-nitro-1H-indol-2-yl)thio)-N-(4-phenoxyphenyl)acetamide)) and test compounds are serially diluted in DMSO to give 200 times of each final concentration (0.5% DMSO final), and 1 μL/well is dispensed in duplicate into 2-mL wells of a 96 well deep well plate. 200 μL/well of T0 culture is added to each internal standard/test compound well used to determine PQS control level. Wells containing only LB broth (blank wells) are also included in the plate.
The plate is sealed and incubated at 37° C. for 24 hours under shaking (˜700 rpm) using a microtiter shaker. At the end of the incubation period, 150 μL/well of the deep well plate culture are transferred in a new non-sterile plate, and 150 μL/well of methanol containing tetra-deuterated PQS (D4-PQS) and 2% acetic acid are added to each well. The plate is sealed, shaken at high speed for 5 minutes and centrifuged at 4,000 g for 40 minutes at room temperature. 100 μL/well of the supernatant is then transferred to glass vials (vials crimp 0.2 mL) and kept at 4° C. until LC-MS/MS analysis.
PQSs quantification is carried out by analyzing samples in discrete batches together with spiked standards and blank samples.
Calibration curves are constructed from PQS standards, and respective deuterated PQS is used as an Internal Standards (IS) to calculate the concentration of analytes in the sample and improve the precision of the assay. The back-calculated concentrations of the calibration standards from the calibration curve shall be within ±20% of the nominal values, the range of the analytical method is determined, and the lower and upper limit of quantification specified.
Liquid chromatography separations are performed using an Agilent HP1100 system (Agilent Technologies) coupled with a CTC PAL Autosampler (CTC Analytics AG). Chromatographic retention is obtained using a monolithic column (Chromolith® RP-18, 50×4.6 mm). The solvent system consists of water containing 0.1% (v/v) formic acid (A) and acetonitrile containing 0.1% (v/v) formic acid (B). The gradient elution profile is chosen as follows: 0 min: 70% A (1500 μL/min), 0.3 min: 70% A (1500 μL/min), 1.3 min: 5% A (2500 μL/min), 1.6 min: 5% A (2500 μL/min).
The MS/MS analysis is performed with an API4000 series mass spectrometer (AB Sciex™) operating in Multiple Reaction Monitoring (MRM) mode and equipped with a TIS ion source. The specific ions monitored are PQS (m/z 260→m/z 175) and D4-PQS (m/z 264→m/z 179). The computer systems used in this study to acquire and quantify data may be an Analyst™ v1.5.
PQS in the presence of different concentrations of test compound are expressed as percentage of inhibition of the basal level in control samples. Curve fitting and IC50 estimations are carried out using a four parameter logistic model using GraphPad Prism v.5 program.

In the case of `N#Cc1cccc(NC(=O)CSc2nc3cc(Cl)ccc3[nH]2)c1` [Compound 138], the IC50 in test [1] and in test [2] was above 10 µM each time.
For the molecule `N#Cc1ccc(NC(=O)CNc2ccc(Cl)cc2)cc1` [Compound 156], the IC50 in test [1] and in test [2] was above 10 µM in each case.
Turning to `N#Cc1ccc(NC(=O)CNc2nc3cc(Cl)ccc3s2)cc1` [Compound 72, 2-(5-Chlorobenzo[d]thiazol-2-ylamino)-N-(4-cyanophenyl)acetamide], the IC50 in test [1] and in test [2] was above 10 µM each time.
For `O=C(CNc1nc2ccc(Cl)cc2s1)Nc1ccc(Oc2cccnc2)cc1` [Compound 73, 2-((6-chlorobenzo[d]thiazol-2-yl)amino)-N-(4-(pyridin-3-yloxy)phenyl)acetamide], the IC50 in test [1] and in test [2] was above 10 µM in each case.
As to `O=C(COc1nc2ccc([N+](=O)[O-])cc2[nH]1)Nc1ccc(Cl)cc1` [Compound 150, N-(4-chlorophenyl)-2-((6-nitro-1H-benzo[d]imidazol-2-yl)oxy)acetamide], the IC50 (in general, the midpoint of a concentration-inhibition curve) is 1 to 10 µM in test [1] and above 10 µM in test [2].
For the molecule `Cc1ccc(Oc2ccc(NC(=O)CSc3nc4cc(Cl)ccc4[nH]3)cc2)cn1` [Compound 80, 2-((5-chloro-1H-benzo[d]imidazol-2-yl)thio)-N-(4-((6-methylpyridin-3-yl)oxy)phenyl)acetamide], the figures for the IC50 in test [1] and in test [2] were below 0.1 µM and below 1 µM, respectively.
The corresponding values for `Cc1cc(NCC(=O)Nc2ccc(C#N)c(Cl)c2)ccc1Br` [Compound 153] are above 10 µM and above 10 µM.
As to `O=C(CCc1nc2ccc(Cl)cc2o1)Nc1ccc(Oc2cccnc2)cc1` [Compound 92, 3-(6-chlorobenzo[d]oxazol-2-yl)-N-(4-(pyridin-3-yloxy)phenyl)propanamide], the IC50 in test [1] and in test [2] was above 10 µM each time.
For the molecule `O=C(CSc1nc2cc(OC(F)F)ccc2[nH]1)Nc1ccc(Cl)cc1` [Compound 95], the IC50 was 1 to 10 µM in test [1] and above 10 µM in test [2].
`O=C(CSc1nc2cc(Cl)ccc2[nH]1)Nc1ccc2c(c1)OCO2` [Compound 139]: the values for the IC50 in test [1] and in test [2] were 1 to 10 µM and above 10 µM, respectively.
The like results for `N#Cc1ccc(NC(=O)CSc2nc3cc(C(=O)O)ccc3[nH]2)cc1` [Compound 106] were, in that order, above 10 µM and above 10 µM.
For the molecule `N#Cc1ccc(NC(=O)CNc2ccc(F)cc2)cc1` [Compound 155], the IC50 in test [1] and in test [2] was above 10 µM in each case.
As to `N#Cc1ccc(NC(=O)CNc2nc3cc(Cl)ccc3o2)cc1` [Compound 75, 2-((5-chlorobenzo[d]oxazol-2-yl)amino)-N-(4-cyanophenyl)acetamide], the IC50 in test [1] and in test [2] was above 10 µM each time.
With `N#Cc1ccc(NC(=O)CSc2cc3cc(Cl)ccc3[nH]2)cc1` [Compound 90, 2-((5-Chloro-1H-indol-2-yl)thio)-N-(4-cyanophenyl)acetamide], the values for the IC50 in test [1] and in test [2] were 1 to 10 µM and above 10 µM, respectively.
For `N#Cc1ccc(NC(=O)CSc2nc3ccc(-n4cccn4)cc3[nH]2)cc1` [Compound 117], the IC50 in test [1] was 1 to 10 µM; in test [2] it was above 10 µM.
The like results for `O=C(CSc1nc2cc(Cl)ccc2[nH]1)Nc1ccc(Oc2cnccn2)cc1` [Compound 78, 2-((5-chloro-1H-benzo[d]imidazol-2-yl)thio)-N-(4-(pyrazin-2-yloxy)phenyl)acetamide] were, in that order, below 0.1 µM and below 1 µM.
Regarding `COc1ccc(NC(=O)CSc2nc3ccc(Cl)cc3[nH]2)cc1Cl` [Compound 143], the IC50 in test [1] was 1 to 10 µM; in test [2], 5 to 10 µM.
As for `CN(C)C(=O)Oc1ccc2[nH]c(SCC(=O)Nc3ccc(Cl)cc3)nc2c1` [Compound 136], the IC50 in test [1] and in test [2] was above 10 µM in each case.
For `N#Cc1ccc(NCC(=O)Nc2ccc(F)c(F)c2)nc1` [Compound 157], the IC50 in test [1] and in test [2] was above 10 µM throughout.
Take `Cc1cc(F)ccc1NC(=O)CNc1ccc(C#N)cc1` [Compound 154]: the IC50 in test [1] and in test [2] was above 10 µM in each case.
Turning to `O=C(CCc1nc2ccc([N+](=O)[O-])cc2[nH]1)Nc1ccc(Cl)cc1` [Compound 134, N-(4-chlorophenyl)-3-(6-nitro-1H-benzo[d]imidazol-2-yl)propanamide hydrochloride], the IC50 in test [1] was in the range of 1 to 10 µM; in test [2], 1 to 5 µM.
Turning to `N#Cc1ccc(NC(=O)CCc2nc3ccc([N+](=O)[O-])cc3[nH]2)cc1` [Compound 148, N-(4-cyanophenyl)-3-(6-nitro-1H-benzo[d]imidazol-2-yl)propanamide], the IC50 in test [1] fell in the range of 1 to 10 µM; in test [2] it was 5 to 10 µM.
The corresponding values for `O=C(CNc1nc2ccccc2[nH]1)Nc1ccc(Oc2cccnc2)cc1` [Compound 151] are above 10 µM and above 10 µM.
As for `O=C(CSc1nc2ccc(Cl)cc2[nH]1)Nc1ccc(F)cc1F` [Compound 144], the IC50 in test [1] is 1 to 10 µM; in test [2], above 10 µM.
In the case of `O=C(CNc1cccc(F)c1)Nc1cccc(Oc2ccccc2)c1` [Compound 158], the IC50 in test [1] and in test [2] was above 10 µM each time.
For `O=C(CSc1nc2cc(Cl)ccc2[nH]1)Nc1ccc(Oc2ccncc2)cc1` [Compound 76, 2-((5-chloro-1H-benzo[d]imidazol-2-yl)thio)-N-(4-(pyridin-4-yloxy)phenyl)acetamide], the IC50 was below 0.1 µM in test [1] and below 1 µM in test [2].
The like results for `CN(C)C(=O)Oc1ccc2[nH]c(SCC(=O)Nc3ccc(C#N)cc3)nc2c1` [Compound 135] were, in that order, above 10 µM and above 10 µM.
For `COc1ccc(NC(=O)CSc2nc3c(Cl)cc(Cl)cc3[nH]2)cc1` [Compound 141], the IC50 in test [1] is 1 to 10 µM; in test [2], above 10 µM.
